The test system of the experiment is intestinal fat absorption. In words: Intestinal fat absorption reduction determination (gravimetric fecal fat content) in dogs. It counts as in vivo. The note with it: male beagles, oral gavage, dosing solution 0.5 mg/mL, 1 mL per kg body weight, single daily dose on Days 0 and 5-12; fecal fat determined gravimetrically. The source says: Healthy, young adult (1-2 years of age) male beagles (Marshall Farms, North Rose, New York, NY 14516) weighing 11.45 - 12.45 kg at the start of the treatment period were employed as test subjects. The animals were housed individually in standard caging meeting or exceeding the USDA regulations (U.S. Department of Agriculture, Animal Welfare, Final Rules. 9 C.F.R. Parts 1-3, 1995).
The test compound was provided as a water-soluble powder. The dosing solution, administered by oral gavage, was provided employing a 0.025 M citrate buffer (approx. pH = 3) prepared using anyhdrous citric acid (0.4 g/mL) and anhydrous sodium citrate (0.1 g/mL) as the test vehicle. The dosing solution was prepared at 0.5 mg/mL activity so that 1 mL was delivered per kg body weight. Following a fourteen day acclimation period (designated as Days -14 to -1), during which time the test animals were evaluated for certain criteria including determination of body weight, physical examinations, and initial fecal specimen collection, a sixteen day evaluation study was effected. […]
Fecal specimens were collected daily over approximately 24 hours (±1 hr) prestudy and then beginning on Day -2 and terminating on Day 16. The fecal specimens so collected were weighed (total grams of bulk feces) frozen, stored at -26°C to -20°C and then analyzed for fecal fat content. […]

Regarding `CCCCN1CCc2cc(NC(=O)c3ccccc3-c3ccc(C(F)(F)F)cc3)ccc2C1` [4'-trifluoromethyl-biphenyl-2-carboxylic acid-(2-butyl-1,2,3,4-tetrahydroisoquinolin-6-yl)-amide], the “reduced intestinal fat absorption in dogs” value is 26%. Under `CC(=O)NCCN1CCc2cc(NC(=O)c3ccccc3-c3ccc(C(F)(F)F)cc3)ccc2C1` [4'-trifluoromethyl-biphenyl-2-carboxylic acid-[2-(2-acetylaminoethyl)-1,2,3,4-tetrahydroisoquinolin-6-yl amide] stands 49%.

The values above are taken from patent EP1099439A2, “Use of apo B secretion/MTP inhibitors” (Pfizer Products Inc., priority 1999, dated 2001).
